Assay results reported in article PMC7615343, “Fluorination Influences the Bioisostery of Myo-Inositol Pyrophosphate Analogs” (Chemistry (Weinheim an der Bergstrasse, Germany), 2023).

Experiment: Anion-exchange HPLC of [33P]-labeled products of PPIP5K2-mediated phosphorylation (relative polarity)
Assay type: physicochemical
Conditions: PartiSphere SAX column, NH4H2PO4 gradient pH 4.0; elution order 5PA-IP5 < 5PCF2Am-IP5 < 5PCP-IP5 < 5PCF2P-IP5 < 5PP-IP5
Text: Lastly, we also developed a protocol by which we can infer the relative polarities of each of the analogs. […] As shown above, 5PA-IP5 and the other analogs each bind in potentially productive orientations in which the 1-phosphate is presented to the active site. Therefore, we attempted to radiolabel each of the analogs by incorporation of [33]Pi from [33]P-γ-ATP, with the objective of resolving each of the [33]P-labeled products by anion-exchange HPLC. We reasoned that this assay could provide an empirical comparison of the relative degree of acidity of each reaction product - and more instructively - the substrates themselves. It should be emphasized that this experiment cannot inform on the relative rates of phosphorylation, in large part because the experimental protocol (low mass levels of high-specific radioactivity of [33]P-γ-ATP) are not appropriate for biologically-relevant kinetic determinations.
Figure 6 HPLC analysis of the products of PPIP5K-mediated phosphorylation of 5PP-IP5 and the various analogs. […]
Kinase activity was studied at 37°C by incubating 700 ng PPIP5K2^1-366 separately with each individual 10 μM test compound and 50 μM ATP plus 60,000 CPM of [^33P-γ]ATP for 30 mins. Assays were quenched with 0.2 volumes of 2 M perchloric acid, neutralized, and [^33P]-labeled products were analyzed by ion-exchange HPLC, using a 4.6 × 125 mm, 5 μm PartiSphere SAX column. […]

O=P(O)(O)O[C@H]1[C@@H](OP(=O)(O)O)[C@H](OP(=O)(O)O)[C@@H](OP(=O)(O)C(F)(F)P(=O)(O)O)[C@H](OP(=O)(O)O)[C@H]1OP(=O)(O)O [5PCF2P-IP5]
Relative HPLC elution of phosphorylated product (protonation state / global polarity compared with 5PP-IP5): most closely resembles the natural molecule with regards to its protonation state
